Experimental data published in ChEMBL document CHEMBL1138338, “Design, synthesis, and structure-activity relationships of a novel series of 5-alkylidenepyridazin-3(2H)-ones with a non-cAMP-based antiplatelet activity” (J Med Chem, 2007).
pIC50: −log10 of the molar value. The source made the active and inactive calls. The calls are words filed in the database; no cut-off is given here.

system: not listed separately; assay: Inhibition of PDE3 in guinea pig ventricle; parameters: species or system Cavia porcellus

pIC50	Compound
2.70	COC(=O)C(=Cc1cc(=O)[nH]nc1-c1ccccc1)C(=O)OC
2.70	CCOC(=O)C(=Cc1cc(=O)[nH]nc1-c1ccccc1)C(=O)OCC
2.70	COC(=O)C(=Cc1cc(=O)n(C)nc1-c1ccccc1)C(=O)OC

system: not listed separately; assay: (§1) Inhibition of thrombin-induced platelet aggregation in human platelets after 5 mins by turbidimetric method; assay type: functional, cell-based

Compound	pIC50
COC(=O)C(=Cc1cc(=O)[nH]nc1-c1ccccc1)C(=O)OC	4.35
COC(=O)C(=Cc1cnn(Cc2ccccc2)c(=O)c1)C(=O)OC	5.31
Cn1ncc(C=C(C(=O)OC(C)(C)C)C(=O)OC(C)(C)C)cc1=O	4.02
O=C(/C=C/c1cc(=O)[nH]nc1-c1ccccc1)c1ccccc1	3.85
Cn1ncc(C=C(C#N)C#N)cc1=O	3.32
O=C(OCc1ccccc1)C(=Cc1cnn(Cc2ccccc2)c(=O)c1)C(=O)OCc1ccccc1	5.87
CC(C)(C)OC(=O)C(=Cc1cc(=O)[nH]nc1-c1ccccc1)C(=O)OC(C)(C)C	5.12
CC(C)OC(=O)C(=Cc1cc(=O)n(C)nc1-c1ccccc1)C(=O)OC(C)C	5.39
O=C(OCc1ccccc1)C(=Cc1cc(=O)[nH]nc1-c1ccccc1)C(=O)OCc1ccccc1	5.74
Cn1nc(-c2ccccc2)c(C=C(C(=O)OC(C)(C)C)C(=O)OC(C)(C)C)cc1=O	4.35
O=C1C(CC[S+]([O-])c2ccccc2)C(=O)N(c2ccccc2)N1c1ccccc1 (configuration not stated) [SULFINPYRAZONE]	3.29
CCOC(=O)C(=Cc1cnn(Cc2ccccc2)c(=O)c1)C(=O)OCC	5.44
CCOC(=O)C(=Cc1cn[nH]c(=O)c1)C(=O)OCC	5.06
CCOC(=O)C(=Cc1cc(=O)n(C)nc1-c1ccccc1)C(=O)OCC	4.77

Next, values leading:

pIC50	Compound
4.70	CCOC(=O)C(=Cc1cc(=O)[nH]nc1-c1ccccc1)C(=O)OCC
3.66	N#C/C=C/c1cnn(Cc2ccccc2)c(=O)c1
5.45	O=C(OCc1ccccc1)C(=Cc1cn[nH]c(=O)c1)C(=O)OCc1ccccc1
4.40	COC(=O)C(=Cc1cn[nH]c(=O)c1)C(=O)OC
4.81	COC(=O)C(=Cc1cnn(C)c(=O)c1)C(=O)OC
5.04	COC(=O)C(=Cc1cc(=O)n(C)nc1-c1ccccc1)C(=O)OC
3.90	N#CC(C#N)=Cc1cnn(Cc2ccccc2)c(=O)c1
5.20	CC(C)(C)OC(=O)C(=Cc1cnn(Cc2ccccc2)c(=O)c1)C(=O)OC(C)(C)C
5.79	Cn1ncc(C=C(C(=O)OCc2ccccc2)C(=O)OCc2ccccc2)cc1=O
5.54	CC(C)OC(=O)C(=Cc1cnn(Cc2ccccc2)c(=O)c1)C(=O)OC(C)C
5.85	Cn1nc(-c2ccccc2)c(C=C(C(=O)OCc2ccccc2)C(=O)OCc2ccccc2)cc1=O
3.77	O=C(/C=C/c1cnn(Cc2ccccc2)c(=O)c1)c1ccccc1
4.76	CC(C)OC(=O)C(=Cc1cc(=O)[nH]nc1-c1ccccc1)C(=O)OC(C)C
5.33	Cc1[nH]c(=O)c(C#N)cc1-c1ccncc1 [MILRINONE]
4.88	CC(C)OC(=O)C(=Cc1cnn(C)c(=O)c1)C(=O)OC(C)C
4.91	CCOC(=O)C(=Cc1cnn(C)c(=O)c1)C(=O)OCC

system: Platelet; assay: as §1; assay type: functional, cell-based

Compound	Activity
COC(=O)C(=Cc1cc(=O)[nH]nc1-c1ccccc1)C(=O)OC	Dose-dependent effect
O=C(OCc1ccccc1)C(=Cc1cnn(Cc2ccccc2)c(=O)c1)C(=O)OCc1ccccc1	Dose-dependent effect
CC(C)OC(=O)C(=Cc1cc(=O)[nH]nc1-c1ccccc1)C(=O)OC(C)C	Dose-dependent effect
COCn1nc(-c2ccccc2)c(/C=C/C(=O)OC)cc1=O	inactive
